# Values of other authors as cited in PubChem BioAssay AID1259409 (Chemical Carcinogenesis Research Information System (CCRIS), 2018).
# System: rodent chemically induced tumor inhibition, incidence and multiplicity
# Assay: CCRIS tumor inhibitor studies
# Excerpt: The CCRIS database contains chemical records with carcinogenicity, mutagenicity, tumor promotion, and tumor inhibition test results. It was developed by the National Cancer Institute (NCI). Data are derived from studies cited in primary journals, current awareness tools, NCI reports, and other sources. Test results have been reviewed by experts in carcinogenesis and mutagenesis.
# CCRIS provides historical information from the years 1985 - 2011. It is no longer updated.
# This is an archive assay for CCRIS tumor inhibitor studies.
smiles,measurement,setting,value
C=C1CC[C@H](O)C/C1=C/C=C1\CCC[C@]2(C)[C@@H]([C@H](C)CC[C@@H](O)C(C)(C)O)CC[C@@H]12,"tumour outcome (control, treated, inhibition, significance)","Carcinogen: N-N-DIETHYLNITROSAMINE [55-18-5], N-METHYL-N-NITROSOUREA [684-93-5], N,N'-DIMETHYLHYDRAZINE [540-73-8], N-BUTYL-N-(4-HYD, Carcinogen: N-N-DIETHYLNITROSAMINE [55-18-5], N-METHYL-N-NITROSOUREA [684-93-5], N,N'-DIMETHYLHYDRAZINE [540-73-8], N-BUTYL-N-(4-HYD, Dose [Inhibitor]: 1 PPM IN DIET FOR 25 WK BEGINNING 1 WK POST LAST CARCINOGEN DOSE (STUDY DURATION: 30 WK), Route [Inhibitor]: ORAL, Species: RAT, Strain/Sex: F344/MALE, Target Tissue: Type of Lesion: COLON: ADENOCARCINOMA, Dose [Carcinogen]: 100 MG/KG BW DEN IP ONCE ON DAY 0, 20 MG/KG BW MNU IP 4X ON DAYS 2, 5, 8, 11, 40 MG/KG BW DMH SC ON DAYS 14, 17, 20, 23;, Dose [Carcinogen]: 100 MG/KG BW DEN IP ONCE ON DAY 0, 20 MG/KG BW MNU IP 4X ON DAYS 2, 5, 8, 11, 40 MG/KG BW DMH SC ON DAYS 14, 17, 20, 23;, Promoter: NONE","14/18 (77.8%), 10/14 (71.4%), 8%, not significant"
same,"tumour outcome (control, treated, inhibition, significance)","Carcinogen: N-N-DIETHYLNITROSAMINE [55-18-5], N-METHYL-N-NITROSOUREA [684-93-5], N,N'-DIMETHYLHYDRAZINE [540-73-8], N-BUTYL-N-(4-HYD, Carcinogen: N-N-DIETHYLNITROSAMINE [55-18-5], N-METHYL-N-NITROSOUREA [684-93-5], N,N'-DIMETHYLHYDRAZINE [540-73-8], N-BUTYL-N-(4-HYD, Dose [Inhibitor]: 1 PPM IN DIET FOR 25 WK BEGINNING 1 WK POST LAST CARCINOGEN DOSE (STUDY DURATION: 30 WK), Route [Inhibitor]: ORAL, Species: RAT, Strain/Sex: F344/MALE, Target Tissue: Type of Lesion: COLON: ADENOMA, Dose [Carcinogen]: 100 MG/KG BW DEN IP ONCE ON DAY 0, 20 MG/KG BW MNU IP 4X ON DAYS 2, 5, 8, 11, 40 MG/KG BW DMH SC ON DAYS 14, 17, 20, 23;, Dose [Carcinogen]: 100 MG/KG BW DEN IP ONCE ON DAY 0, 20 MG/KG BW MNU IP 4X ON DAYS 2, 5, 8, 11, 40 MG/KG BW DMH SC ON DAYS 14, 17, 20, 23;, Promoter: NONE","6/18 (33.3%), 3/14 (21.4%), 36%, not significant"
same,"tumour outcome (control, treated, inhibition, significance)","Carcinogen: N-N-DIETHYLNITROSAMINE [55-18-5], N-METHYL-N-NITROSOUREA [684-93-5], N,N'-DIMETHYLHYDRAZINE [540-73-8], N-BUTYL-N-(4-HYD, Carcinogen: N-N-DIETHYLNITROSAMINE [55-18-5], N-METHYL-N-NITROSOUREA [684-93-5], N,N'-DIMETHYLHYDRAZINE [540-73-8], N-BUTYL-N-(4-HYD, Dose [Inhibitor]: 5 PPM IN DIET FOR 25 WK BEGINNING 1 WK POST LAST CARCINOGEN DOSE (STUDY DURATION: 30 WK), Route [Inhibitor]: ORAL, Species: RAT, Strain/Sex: F344/MALE, Target Tissue: Type of Lesion: COLON: ADENOCARCINOMA, Dose [Carcinogen]: 100 MG/KG BW DEN IP ONCE ON DAY 0, 20 MG/KG BW MNU IP 4X ON DAYS 2, 5, 8, 11, 40 MG/KG BW DMH SC ON DAYS 14, 17, 20, 23;, Dose [Carcinogen]: 100 MG/KG BW DEN IP ONCE ON DAY 0, 20 MG/KG BW MNU IP 4X ON DAYS 2, 5, 8, 11, 40 MG/KG BW DMH SC ON DAYS 14, 17, 20, 23;, Promoter: NONE","14/18 (77.8%), 5/14 (35.7%), 54%, p<0.05"
same,"tumour outcome (control, treated, inhibition, significance)","Carcinogen: N-N-DIETHYLNITROSAMINE [55-18-5], N-METHYL-N-NITROSOUREA [684-93-5], N,N'-DIMETHYLHYDRAZINE [540-73-8], N-BUTYL-N-(4-HYD, Carcinogen: N-N-DIETHYLNITROSAMINE [55-18-5], N-METHYL-N-NITROSOUREA [684-93-5], N,N'-DIMETHYLHYDRAZINE [540-73-8], N-BUTYL-N-(4-HYD, Dose [Inhibitor]: 5 PPM IN DIET FOR 25 WK BEGINNING 1 WK POST LAST CARCINOGEN DOSE (STUDY DURATION: 30 WK), Route [Inhibitor]: ORAL, Species: RAT, Strain/Sex: F344/MALE, Target Tissue: Type of Lesion: COLON: ADENOMA, Dose [Carcinogen]: 100 MG/KG BW DEN IP ONCE ON DAY 0, 20 MG/KG BW MNU IP 4X ON DAYS 2, 5, 8, 11, 40 MG/KG BW DMH SC ON DAYS 14, 17, 20, 23;, Dose [Carcinogen]: 100 MG/KG BW DEN IP ONCE ON DAY 0, 20 MG/KG BW MNU IP 4X ON DAYS 2, 5, 8, 11, 40 MG/KG BW DMH SC ON DAYS 14, 17, 20, 23;, Promoter: NONE","6/18 (33.3%), 0/14 (0.0%), 100%, not significant"
O=C(CCCN=C=S)c1cccnc1,"tumour outcome (control, treated, inhibition, significance)","Carcinogen: 4-(METHYLNITROSAMINO)-1-(3-PYRIDYL)-1-BUTANONE, 64091-91-4, Dose [Inhibitor]: 0, 5 UMOL 1/D FOR 4 D ADMINISTERED PRIOR TO CARCINOGEN DOSE (STUDY DURATION: 116 D), Route [Inhibitor]: GAVAGE, Species: MOUSE, Strain/Sex: STRAIN-A, Target Tissue: Type of Lesion: LUNG: ADENOMA, Dose [Carcinogen]: 10 UMOL IN SALINE ADMINISTERED 2 HR POST LAST AGENT DOSE, Promoter: NONE USED","100%, 96%, 4%, not significant"
same,"tumour outcome (control, treated, inhibition, significance)","Carcinogen: 4-(N-NITROSOMETHYLAMINO)-1-(3-PYRIDYL)-1-BUTANONE, 64091-91-4, Dose [Inhibitor]: 0, 5 UMOL/D FOR 4 CONSECUTIVE DAYS (STUDY DURATION: 16.5 WK), Route [Inhibitor]: GAVAGE, Species: MOUSE, Strain/Sex: STRAIN-A/FEMALE, Target Tissue: Type of Lesion: LUNG: ADENOMA, Dose [Carcinogen]: 10 UMOL ONCE 2 HR POST LAST AGENT DOSE, Promoter: NONE USED","100%, 96%, 4%, not calculated"
C[C@@H]1O[C@@H](OC[C@H]2O[C@@H](Oc3c(-c4ccc(O)c(O)c4)oc4cc(O)cc(O)c4c3=O)[C@H](O)[C@@H](O)[C@@H]2O)[C@H](O)[C@H](O)[C@H]1O,"tumour outcome (control, treated, inhibition, significance)","Carcinogen: 7,12-DIMETHYLBENZ[A]ANTHRACENE, 57-97-6, Dose [Inhibitor]: 0, 0.2 ML OF A 1% SOLUTION 1/D FOR 2 WK APPLIED 5 MIN POST EACH CARCINOGEN DOSE THEN 1/D FOR 4 WK DURING PROMOTION STAGE, Route [Inhibitor]: DERMAL, Species: MOUSE, Strain/Sex: SWISS/MALE, Target Tissue: Type of Lesion: SKIN: PAPILLOMA, Dose [Carcinogen]: 0.2 ML OF A 0.24% SOLUTION IN DMSO 1/D FOR 2 WK, Promoter: CROTON OIL, 8001-28-3","23/23 (100%), 14/24 (58%), 42%, not calculated"
same,"tumour outcome (control, treated, inhibition, significance)","Carcinogen: 7,12-DIMETHYLBENZ[A]ANTHRACENE, 57-97-6, Dose [Inhibitor]: 0, 0.2 ML OF A 1% SOLUTION 1/D FOR 2 WK APPLIED 5 MIN PRIOR TO EACH CARCINOGEN DOSE (STUDY DURATION: 20 WK), Route [Inhibitor]: DERMAL, Species: MOUSE, Strain/Sex: SWISS/MALE, Target Tissue: Type of Lesion: SKIN: PAPILLOMA, Dose [Carcinogen]: 0.2 ML OF A 0.24% SOLUTION IN DMSO 1/D FOR 2 WK, Promoter: CROTON OIL, 8001-28-3","23/23 (100%), 21/23 (91%), 9%, not calculated"
same,"tumour outcome (control, treated, inhibition, significance)","Carcinogen: AZOXYMETHANE, 25843-45-2, Dose [Inhibitor]: 0, 1% IN DIET FOR DURATION OF STUDY (STUDY DURATION: 48 WK), Route [Inhibitor]: ORAL, Species: MOUSE, Strain/Sex: CF-1/FEMALE, Target Tissue: Type of Lesion: COLON: TUMOR, Dose [Carcinogen]: 10 MG/KG BW 3 TIMES, Promoter: NONE USED","8/32 (25%), 9/35 (26%), -4%, not significant"
same,"tumour outcome (control, treated, inhibition, significance)","Carcinogen: AZOXYMETHANE, 25843-45-2, Dose [Inhibitor]: 0, 4% IN DIET FOR DURATION OF STUDY (STUDY DURATION: 48 WK), Route [Inhibitor]: ORAL, Species: MOUSE, Strain/Sex: CF-1/FEMALE, Target Tissue: Type of Lesion: COLON: TUMOR, Dose [Carcinogen]: 10 MG/KG BW 3 TIMES, Promoter: NONE USED","8/32 (25%), 3/31 (10%), 60%, not significant"
